The experiment is described as follows: LAP4-GFP modulation potency in yeast, dose response, cell-based, MLPCN hits, flow cytometry (AID 2745).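 Also: yeast exposed to compound for three hours at 30 degrees.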 The conditions noted are these: S. cerevisiae LAP4-GFP reporter, flow cytometry fluorescence; at 33 µM (top of the series).

The source made the active and inactive calls. No rule for the calls is given here.

`Cc1cccc(C(=O)NNC(=S)NC(=O)c2ccccc2)c1`: the LAP4-GFP fluorescence (kMESF) was 9.62 kMESF (inactive).

With `CC(=O)Oc1oc(-c2ccccc2)nc1C=Nc1ccc(N(C)C)cc1`, the LAP4-GFP fluorescence (kMESF) was 7.39 kMESF (inactive).

Consider `O=C(COc1ccccc1)NNC(=S)NC(=O)c1ccccc1`, for which the LAP4-GFP fluorescence (kMESF) was 4.36 kMESF (inactive).

`Cc1cc(C)c(S(=O)(=O)N2CCC(C(=O)NCc3ccc(Cl)cc3Cl)CC2)c(C)c1`: the LAP4-GFP fluorescence (kMESF) was 4.35 kMESF (inactive).

For `CC(=O)N(C1=C(Cl)C(=O)c2ccccc2C1=O)C1CCCCC1`, the LAP4-GFP fluorescence (kMESF) is -2.43 kMESF (inactive).

In the case of `Cc1ccc(S(=O)(=O)N2CCCC2C(=O)NCc2ccncc2)cc1` (stereo not given), the LAP4-GFP fluorescence (kMESF) was 4.58 kMESF (inactive).

For the compound `COc1ccc(C(=O)NC(=S)NNC(=O)CCc2ccccc2)cc1`, the LAP4-GFP fluorescence (kMESF) was 5.9 kMESF (inactive).

Turning to `CCN(CC)c1ccc(/C=C2/C(=O)c3ccc(C(=O)O)cc3C2=O)cc1`, the LAP4-GFP fluorescence (kMESF) is 13.8 kMESF (inactive).

Regarding `O=C(OCn1ncc(Br)c(Br)c1=O)c1ccccc1Cl`, the LAP4-GFP fluorescence (kMESF) is 10.5 kMESF (inactive).

As for `Cc1ccccc1C(=O)NNC(=S)NC(=O)c1ccc(Cl)cc1Cl`, the LAP4-GFP fluorescence (kMESF) was 8.22 kMESF (inactive).

Regarding `CC(=O)[C@]1(O)Cc2c(O)c3c(c(O)c2[C@@H](O[C@H]2C[C@H](N)[C@H](O)[C@H](C)O2)C1)C(=O)c1ccccc1C3=O`, the LAP4-GFP fluorescence (kMESF) is 9.67 kMESF (inactive).

As to `N#C/C(=C\c1ccccn1)c1nc2ccccc2s1`, the LAP4-GFP fluorescence (kMESF) was 15.1 kMESF (inactive).

As to `COc1ccc(NC(=O)/C(C#N)=C/c2ncc([N+](=O)[O-])n2C)c(OC)c1`, the LAP4-GFP fluorescence (kMESF) was 9.76 kMESF (inactive).

On to `COc1ccc(N2C(=O)C(Cl)=C(NCc3ccccc3)C2=O)cc1`, for which the LAP4-GFP fluorescence (kMESF) is 6.61 kMESF (inactive).

Regarding `CN(C)c1ccc(N=Cc2nc(-c3ccccc3)oc2OC(=O)c2ccccc2)cc1`, the LAP4-GFP fluorescence (kMESF) is 4.09 kMESF (inactive).

Consider `CCc1nc2ccccc2c(=O)n1NC(=O)c1c(O)c2ccccc2n(CC)c1=O`, for which the LAP4-GFP fluorescence (kMESF) is 3.31 kMESF (inactive).

`CCCN1CCc2c(sc(NC(=S)NC(=O)c3ccccc3)c2C#N)C1`: the LAP4-GFP fluorescence (kMESF) was 7.91 kMESF (inactive).

Turning to `CCCc1nnc(NC(=O)c2c(O)c3cccc4c3n(c2=O)CCC4)s1`, the LAP4-GFP fluorescence (kMESF) was 0.3 kMESF (inactive).

With `CC(=O)NN1C(=O)/C(=C/c2ccc(Br)o2)SC1=S`, the LAP4-GFP fluorescence (kMESF) was 2.52 kMESF (inactive).

For `O=C1NC(=O)N(CCc2ccc(F)cc2)C(=O)/C1=C/c1cccs1`, the LAP4-GFP fluorescence (kMESF) was 9.69 kMESF (inactive).

As for `CC(C)CC(=O)NC(=S)Nc1nc(-c2ccccc2)cs1`, the LAP4-GFP fluorescence (kMESF) was 3.44 kMESF (inactive).

For `O=C(NC(=S)NNC(=O)c1ccc(Cl)cc1Cl)c1cccnc1`, the LAP4-GFP fluorescence (kMESF) was 4.37 kMESF (inactive).

`CC1(c2ccccc2)ON(c2ccccc2C(F)(F)F)C1=O` (stereo not given): the LAP4-GFP fluorescence (kMESF) is 5.97 kMESF (inactive).

Turning to `CCCCOc1ccc(C(=O)NNC(=S)NC(=O)CC)cc1`, the LAP4-GFP fluorescence (kMESF) was 9.81 kMESF (inactive).

On to `O=C(Nc1ccc(NC(=O)c2cc3ccccc3o2)cc1)c1ccc2c(c1)OCCO2`, for which the LAP4-GFP fluorescence (kMESF) was 3.21 kMESF (inactive).

Consider `CCCOc1ccc(C(=O)NNC(=S)NC(=O)c2ccccc2)cc1`, for which the LAP4-GFP fluorescence (kMESF) is 8.22 kMESF (inactive).

Take `COc1ccccc1[C@]1(C)ON(c2ccccc2C(F)(F)F)C1=O`: the LAP4-GFP fluorescence (kMESF) was 7.79 kMESF (inactive).

As to `O=[N+]([O-])c1ccc(Sc2nc3ccccc3o2)c([N+](=O)[O-])c1`, the LAP4-GFP fluorescence (kMESF) was 4.88 kMESF (inactive).

For the compound `CCCc1cc(NCc2ccccn2)n2nc(C)c(-c3ccccc3)c2n1`, the LAP4-GFP fluorescence (kMESF) was 9.24 kMESF (inactive).

Consider `CCOC(=O)Cn1cc(/C=C/[N+](=O)[O-])c2ccccc21`, for which the LAP4-GFP fluorescence (kMESF) is 8.42 kMESF (inactive).

As for `COc1cccc2cc(-c3nc4ccccc4o3)c(=O)oc12`, the LAP4-GFP fluorescence (kMESF) is 3.03 kMESF (inactive).

Consider `O=C1C=C(c2ccc(Cl)cc2)C(=O)N1Nc1ccccc1`, for which the LAP4-GFP fluorescence (kMESF) is 5.81 kMESF (inactive).

Regarding `CN(O)/C=c1/ccc2c(n1)C(=O)C=CC=2`, the LAP4-GFP fluorescence (kMESF) is 17.5 kMESF (inactive).

With `CCN(CC)C(=O)Oc1ccnc2cc(Cl)ccc12`, the LAP4-GFP fluorescence (kMESF) is 7.62 kMESF (inactive).

In the case of `C[n+]1ccc(/C=C/c2c[nH]c3ccccc23)cc1`, the LAP4-GFP fluorescence (kMESF) is 9.29 kMESF (inactive).

For `COc1ccccc1C(=O)NNC(=S)NC(=O)c1ccco1`, the LAP4-GFP fluorescence (kMESF) is 13.2 kMESF (inactive).

As for `O=C1N(c2ccccc2C(F)(F)F)O[C@]1(c1ccccc1)C1CCCCC1`, the LAP4-GFP fluorescence (kMESF) is 2.33 kMESF (inactive).

For the compound `O=C1C=CC(=O)N1c1ccc(OC(F)F)cc1`, the LAP4-GFP fluorescence (kMESF) was 4.2 kMESF (inactive).

On to `CCC1(c2ccccc2)ON(c2c(Br)cccc2Br)C1=O` (stereo not given), for which the LAP4-GFP fluorescence (kMESF) was 7.52 kMESF (inactive).

In the case of `N/C(=N\OC(=O)c1cccc(Br)c1)c1ccccc1`, the LAP4-GFP fluorescence (kMESF) was 4.51 kMESF (inactive).

Consider `C#CCOCCOCCOCCNc1nc(N2CCN(C(=O)CCCCCCCCCCNC(=O)[C@H](CCCCN)n3cc(CCO)nn3)CC2)nc(N2CCN(C(=O)CCCCCCCCCCNC(=O)[C@H](CCCN=C(N)N)n3cc(C[C@@H](C)CC)nn3)CC2)n1`, for which the LAP4-GFP fluorescence (kMESF) was 6.17 kMESF (inactive).

For the compound `COc1cc(CNC(=O)CCCCCCC(C)C)ccc1O`, the LAP4-GFP fluorescence (kMESF) was 3.74 kMESF (inactive).

In the case of `Cc1ccc(C2=NN(S(C)(=O)=O)C(c3ccc4c(c3)OCO4)C2)cc1` (stereo not given), the LAP4-GFP fluorescence (kMESF) was 4.78 kMESF (inactive).

Regarding `COc1ccc(Cl)cc1C(Nc1cccnc1)c1ccc2cccnc2c1O` (stereo not given), the LAP4-GFP fluorescence (kMESF) is 19.3 kMESF (inactive).

`Cc1ccc(/C=C/C(=O)c2ccc([N+](=O)[O-])o2)cc1`: the LAP4-GFP fluorescence (kMESF) was 9.71 kMESF (inactive).

Take `O=C1c2ccccc2C(=O)N1OS(=O)(=O)c1ccc(F)cc1`: the LAP4-GFP fluorescence (kMESF) is 9.97 kMESF (inactive).

As to `CC1=C(C)/C(=N\OS(=O)(=O)c2ccc(C)cc2)C=CC1=O`, the LAP4-GFP fluorescence (kMESF) was 5.77 kMESF (inactive).

In the case of `O=C(OCC(=O)N1CCN(C(=O)c2ccco2)CC1)c1cc(-c2ccc(Cl)c(Cl)c2Cl)nc2ccccc12`, the LAP4-GFP fluorescence (kMESF) is 4.61 kMESF (inactive).

In the case of `COC(=O)CCS(=O)(=O)c1nc(-c2ccccc2)cc(C(F)(F)F)n1`, the LAP4-GFP fluorescence (kMESF) was 20.1 kMESF (inactive).

Consider `CS(=O)(=O)N1N=C(c2ccccc2)CC1c1ccc2c(c1)OCO2` (stereo not given), for which the LAP4-GFP fluorescence (kMESF) is -20.2 kMESF (inactive).

Regarding `Cc1ccc(/C=C2\SC(=S)N(CC3CCCO3)C2=O)o1` (stereo not given), the LAP4-GFP fluorescence (kMESF) is 4.89 kMESF (inactive).

On to `COc1ccc(NC2=C(Cl)C(=O)N(CCc3ccccc3)C2=O)cc1`, for which the LAP4-GFP fluorescence (kMESF) was 5.81 kMESF (inactive).

For the compound `COc1cc(/C=C/c2ccc3c(Br)cc(Br)c(O)c3n2)ccc1O`, the LAP4-GFP fluorescence (kMESF) is 11.7 kMESF (inactive).

As to `COc1ccc(N2CCN(C(=O)c3ccccc3)CC2)c([N+](=O)[O-])c1`, the LAP4-GFP fluorescence (kMESF) was 6.87 kMESF (inactive).

`Nc1nc2ncc(CNc3ccc(C(=O)N[C@@H](CCC(=O)O)C(=O)O)cc3)nc2c(=O)[nH]1`: the LAP4-GFP fluorescence (kMESF) is 4.01 kMESF (inactive).

Values taken from PubChem BioAssay AID2745 (NMMLSC, 2010).
